Paper PMC12767106, “In Situ Assembly of Transformable Monopeptide on Activated Neutrophils Attenuates NETs‐Induced Hepatocellular Carcinoma Metastasis by Disrupting NE Nuclear Translocation” (Advanced Science, 2025)

What was measured:
C166 endothelial cells = assay: Matrigel tube formation assay; type: cell-based, mouse; conditions: 6 h, versus Control and NFTP-NPs groups
Method: Matrigel tube formation assay
Murine C166 endothelial cells (3×10^4cells/well) were placed on 96-well plates coated with Matrigel (356231, Corning, New York, USA) and incubated with various treatments. After incubation for six h, capillary-like structures were observed and counted under a microscope (Axiovert 200, Zeiss, Germany). All the experiments […]
In vitro permeability assays and trans-endothelial invasion assays
For in vitro permeability assays, C166 cells were treated with Resting neutrophils, Control, NFTP-NPs, FTP-NPs, and NEi groups for 48 h to form an endothelial monolayer, and then Evans Blue (PHYGENE, China) was added to the upper layer of the transwell filters (0.4 μm, Corning). […]
All the experiments were performed thrice. […]

Hepa1-6 cells = assay: Cell proliferation (CCK-8) with medium from treated neutrophils; type: cell-based, mouse; conditions: CCK-8, medium from activated neutrophils treated with NPs; versus Control and NFTP-NPs groups
Method: (§1) Submitted to Advanced Science
Freshly isolated neutrophils were stimulated with PBS, PMA, PMA+NFTP-NPs, PMA+FTP-NPs, and PMA+NEi for 4 h to stimulate NETs formation. Cells were then centrifuged at 480g for 10 minutes. The supernatant (NETs rich media) was then centrifuged at 18000g for 15 mins to form a pellet. The obtained pellet contained the mixture of chromatins and proteins, which was then resuspended in cell culture media to treat cancer cells, which was collected and respectively named as resting neutrophils, Control, NFTP-NPs, FTP-NPs, and NEi, then stored at -80◦C for further use.
Resting neutrophils (Neu)-treated, Control (Neu+PMA)-treated, NFTP-NPs (Neu+PMA+NFTP-NPs)-treated, FTP-NPs (Neu+PMA+FTP-NPs)-treated, and NEi (Neu+PMA+NEi)-treated Hepa1-6/luc cells and Hepa1-6/luc cells (2×10^3cells/well) were seeded on 96-well plates. Cell proliferation was assessed using the Cell Counting Kit-8 (Biosharp, China) following the manufacturer’s instructions. The final optical density (OD) value was measured daily for 3 consecutive days using a microplate reader at 450 nm (Tecan Infinite M200, Switzerland). Each condition was performed in triplicate. […]

[1] = test system: Hepa1-6/luc HCC xenograft; assay: Subcutaneous Hepa1-6/luc tumor model, tumor growth; type: in vivo, mouse; conditions: C57BL/6J mice, 300 µM in 200 µL i.v. five times every two days; aPD-1 200 µg i.p. every 4 days, 3 doses; n = 5
Method: as §1
Total RNA was extracted and purified using a miRNeasy Mini Kit (FOREGENE, China). Quantitative real-time polymerase chain reaction (qRT-PCR) was performed in triplicate in the ABI 7500 fast real-time PCR System (Applied Biosystems, USA). The mRNAs were normalized with 18s. The following primers were used for PCR detection: E-cadherin, N-cadherin, Vimentin, and α-catenin.
Western blot analysis was performed to evaluate the levels of relative proteins in Hepa1-6/luc cells and Neutrophils.38 To evaluate NETs release, the neutrophils were exposed to PMA, PMA+NFTP -NPs, and PMA+FTP-NPs for 12 h. Following treatment, the cells underwent three PBS washes for WB to measure the expression of CitH3 proteins (Cat. no. ab5103, Abcam, Cambridge, England , UK). Furthermore, to evaluate EMT of Hepa1-6/luc cells, the cells underwent three PBS washes for WB to measure the expression of E - cadherin (Abmart, China), N-cadherin (Abmart, China), Vimentin (Abmart, China) , and β-catenin (Abmart, […]
In vivo subcutaneously implanted tumor models
The C57BL/6J mice with subcutaneous Hepa1-6/luc xenografts (grew up to roughly 100 mm 3) were separated into four groups according to the different treatments to perform the in vivo tumor therapy. […] Throughout the experiment, the tumor volumes and body weight were measured once every four days. […]

For PpIX-GFFVLK-EAIPMSIPPEVK [FTP-NPs], the “number of tubular structures formed” value (C166 endothelial cells) was “significantly lower”, the “proliferation rate of Hepa1-6 cells” value (Hepa1-6 cells) was “much lower” and the “tumor growth / increase in tumor volume” value [1] was “significant efficacy in suppressing tumor growth”.
